Laboratory results taken from patent publication US6828341B2, “Cyclohexylamine derivatives as subtype selective N-Methyl-D-Aspartate antagonists” (Warner-Lambert Company, priority 2001, dated 2004).
Where a name gives a salt, the structure may show the parent alone.

Columns and labels:
[1] = molecular target: T1, NR1A/NR2B NMDA receptor subtype (Rattus norvegicus, UniProt P35439+Q00960); experiment: [3H]Ifenprodil binding assay (IFPNR); details: displacement of 4 nM [3H]-ifenprodil, adult rat forebrain membranes, 2 hours at room temperature, pH 7.4
T1 construct: membrane fraction was prepared from frozen adult rat forebrains; tissue Zivic-Miller Laboratories, Inc; host or cells: adult rat forebrain, washed buffy coat membrane fraction
T1 sequence (Q00960 27-1482, other chains not shown): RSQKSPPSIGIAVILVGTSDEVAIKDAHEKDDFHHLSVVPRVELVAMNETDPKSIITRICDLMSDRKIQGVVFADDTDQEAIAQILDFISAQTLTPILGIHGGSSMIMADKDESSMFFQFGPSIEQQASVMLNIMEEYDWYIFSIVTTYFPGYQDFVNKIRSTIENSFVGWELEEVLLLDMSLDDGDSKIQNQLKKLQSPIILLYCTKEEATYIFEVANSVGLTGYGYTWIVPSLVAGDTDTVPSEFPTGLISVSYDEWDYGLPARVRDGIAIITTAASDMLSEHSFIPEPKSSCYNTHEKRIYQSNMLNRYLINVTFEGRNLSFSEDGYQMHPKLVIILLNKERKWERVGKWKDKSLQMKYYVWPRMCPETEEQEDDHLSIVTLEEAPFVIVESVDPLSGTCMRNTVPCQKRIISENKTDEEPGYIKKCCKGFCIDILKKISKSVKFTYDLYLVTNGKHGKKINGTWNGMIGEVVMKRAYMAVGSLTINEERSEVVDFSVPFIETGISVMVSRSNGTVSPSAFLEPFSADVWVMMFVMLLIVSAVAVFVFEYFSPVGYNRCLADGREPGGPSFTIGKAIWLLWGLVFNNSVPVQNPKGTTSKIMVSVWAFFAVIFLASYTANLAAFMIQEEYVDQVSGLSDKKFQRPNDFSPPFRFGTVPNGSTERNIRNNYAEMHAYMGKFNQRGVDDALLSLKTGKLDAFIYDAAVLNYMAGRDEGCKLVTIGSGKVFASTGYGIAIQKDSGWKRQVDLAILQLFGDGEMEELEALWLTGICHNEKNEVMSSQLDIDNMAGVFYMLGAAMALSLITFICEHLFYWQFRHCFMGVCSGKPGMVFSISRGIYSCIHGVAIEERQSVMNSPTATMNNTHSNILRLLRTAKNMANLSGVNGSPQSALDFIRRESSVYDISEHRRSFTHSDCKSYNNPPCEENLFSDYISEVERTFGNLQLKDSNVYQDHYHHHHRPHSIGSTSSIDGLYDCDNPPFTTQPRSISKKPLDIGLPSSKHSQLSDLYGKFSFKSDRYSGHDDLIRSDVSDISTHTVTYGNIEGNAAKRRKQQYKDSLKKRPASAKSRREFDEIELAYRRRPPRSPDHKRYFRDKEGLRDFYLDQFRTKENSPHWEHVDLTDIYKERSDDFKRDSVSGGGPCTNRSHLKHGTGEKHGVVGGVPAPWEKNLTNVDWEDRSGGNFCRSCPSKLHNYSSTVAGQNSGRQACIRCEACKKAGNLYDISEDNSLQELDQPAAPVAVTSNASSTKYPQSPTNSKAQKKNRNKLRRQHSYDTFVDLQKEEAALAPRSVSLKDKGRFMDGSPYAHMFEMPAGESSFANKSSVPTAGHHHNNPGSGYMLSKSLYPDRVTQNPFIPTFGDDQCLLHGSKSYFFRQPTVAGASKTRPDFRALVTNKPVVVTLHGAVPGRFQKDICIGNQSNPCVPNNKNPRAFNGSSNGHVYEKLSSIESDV
Procedure: (b) [^3H]Ifenprodil Binding Assay (IFPNR) Protocol:
Ifenprodil, [phenyl-^3H]-(specific activity, 66.2 Ci/mmol) was purchased from Dupont NEN Research Products (Boston, Mass.). Ifenprodil tartrate was purchased from Research Biochemicals International (Natick, Mass.). HEPES, glutamate, and glycine were purchased from Sigma Chemical Co. (St. Louis, Mo.).
All buffers and reagents used in assay incubations or to dissolve drugs were prepared using water purified through a Milli-Q reverse osmosis system (Millipore Corp., Bedford, Mass.) and treated with UV emissions. Prior to use in the assays buffers were further filtered through a sterile Corning filtration unit (Corning Glass Works, Corning, N.Y.) containing a 0.2 micron filter. Buffer used to rinse the membranes on the assay filters was prepared with purified water, but was not refiltered and was stored no longer than 5 days. Stock solutions of the drugs (usually 10 mM) were dissolved in 20 mM HEPES-KOH buffer pH 7.4 (assay buffer) with the addition of from 1 to 5 μL of glacial AcOH, if needed to keep them in solution. Eliprodil was used as the reference NMDA antagonist. A stock solution of eliprodil was prepared and was buffered with the addition of 10% DMSO. All subsequent dilutions from the stock solution were made in buffer.
An extensively washed buffy coat membrane fraction was prepared from frozen adult rat forebrains (Zivic-Miller Laboratories, Inc., Zelienople, Pa.) as described by Coughenour L. L., Cordon J. J., J. Phannacol. Exp. Ther., 1997;280:584-592, and stored at −80° C. On the day of the assay, pellets of the frozen membrane fractions were resuspended in 35 mL of assay buffer at pH 7.4 using a POLYTRON (Kinematica A.G. Company, Littau, Switzerland) mixer at setting 6. After incubation at 37° C. for 30 minutes in a shaking water bath, the homogenate was centrifuged 40,000×g for 10 minutes at 4° C. The pellets were resuspended in fresh buffer and centrifuged 3 more times before final suspension for use in the assay.
Triplicate incubations were carried out in a volume of 0.5 mL in 1.3 mL polypropylene tubes (Marsh Biomedical Products Inc., Rochester, N.Y.) for 2 hours at room temperature. Incubations contained invention compounds, membranes (100-200 μg protein) and 4 nM [^3H]-ifenprodil in 20 mM HEPES-KOH buffer, pH 7.4 (assay buffer). Assays were started by addition of the membranes. Bound radioligand was separated by filtration under reduced pressure using a TOMTEC Mach II, 96 well cell harvester (Tomtec Inc, Orange, Conn.). Filtration was through Whatman GF/B glass fiber filters (Whatman Ltd., Maidstone, England), which had been soaked for at least 15 minutes in 0.3% polyethylenimine and allowed to air dry. The filters were rinsed with 3 mL of ice cold assay buffer within 6 seconds. Air was allowed to pass through the filters for an additional 10 seconds to remove residual moisture. The filter mat was supported on a cold (−20° C.) TEFLON (E. I. Du Pont de Nemours and Company, Wilmington, Del.) coated support, and filters from individual wells were separated and placed in Mini Poly-Q vials (Beckman Instruments Inc., Fullerton, Calif.) and filled with 4 mL of scintillation cocktail (Beckman Ready Protein^+). Radioactivity retained on the filter was determined by liquid scintillation spectrophotometry. Nonspecific binding was defined as the binding in the presence of 1 mM ifenprodil. 90% of the total binding of ifenprodil was specific binding at the NR1A/NR2B NMDA receptor subtype active site (as opposed to binding at a remote site).
Binding curves were statistically analyzed for a best one- or two-site competition fit using GRAPHPAD PRISM software (GraphPad Software Inc., San Diego, Calif.), a computer program used to analyze and graph scientific data. The normalized data was fitted by nonweighted nonlinear regression to either [formula]
Control data was entered as 100%, and no parameters were constrained. […]

| melting point [°C] | IC50 [1] [nM] | SMILES |
| --- | --- | --- |
| 176 to 183 |  | Cc1oc(-c2ccccc2)cc1CN(C)[C@H]1CC[C@H](c2ccc3[nH]c(=O)oc3c2)CC1 (as salt: hydrochloride) [Example 2, trans-6-{4-[Methyl-(2-methyl-5-phenyl-furan-3-ylmethyl)-amino]-cyclohexyl}-3H-benzoxazol-2-one] |
| 270 to 274 |  | CN(CC1CC(c2ccc3[nH]c(=O)oc3c2)=NO1)[C@H]1CC[C@H](c2ccccc2)CC1 (relative stereo) (as salt: hydrochloride) [Example 1, trans-6-(5-{[Methyl-(4-phenyl-cyclohexyl)-amino]-methyl}-4,5-dihydro-isoxazol-3-yl)-3H-benzoxazol-2-one] |
|  | 5900 | CN(CC1CC(c2ccc3[nH]c(=O)oc3c2)=NO1)[C@H]1CC[C@H](c2ccccc2)CC1 (relative stereo) [Example 1, trans-6-(5-{[Methyl-(4-phenyl-cyclohexyl)-amino]-methyl}-4,5-dihydro-isoxazol-3-yl)-3H-benzoxazol-2-one] |
| 109 to 114 | 391 | CN(CC1CC(c2ccc(F)cc2)=NO1)[C@H]1CC[C@H](c2ccc3[nH]c(=O)oc3c2)CC1 (relative stereo) [Example 6b, trans-6-(4-{[3-(4-Fluoro-phenyl)-4,5-dihydro-isoxazol-5-ylmethyl]-methyl-amino}-cyclohexyl)-3H-benzoxazol-2-one] |
|  | 6670 | Cc1oc(-c2ccccc2)cc1CN(C)[C@H]1CC[C@H](c2ccc3[nH]c(=O)oc3c2)CC1 [Example 2, trans-6-{4-[Methyl-(2-methyl-5-phenyl-furan-3-ylmethyl)-amino]-cyclohexyl}-3H-benzoxazol-2-one] |
|  | 394 | CN(C[C@@H]1CN(c2ccccc2)C(=O)O1)[C@H]1CC[C@H](c2ccc3[nH]c(=O)oc3c2)CC1 [Example 3b, trans-(R)-6-{4-[Methyl-(2-oxo-3-phenyl-oxazolidin-5-ylmethyl)-amino]-cyclohexyl}-3H-benzoxazol-2-one] |
|  | > 1000 | O=C1OC(CNC2CCC(c3ccc(F)cc3)CC2)CN1c1ccc2[nH]c(=O)oc2c1 (stereo not drawn) [Example 4a, trans-6-{5-[4-(4-Fluoro-phenyl)-cyclohexylamino]-methyl-2-oxo-oxazolindin-3-yl}-3H-benzoxazol-2-one] |
|  | > 1000 | CN(CC1CN(c2ccc3[nH]c(=O)oc3c2)C(=O)O1)C1CCC(c2ccc(F)cc2)CC1 (stereo not drawn) [Example 4b, trans-6-(5-{[4-(4-Fluoro-phenyl)-cyclohexyl]-methyl-amino}-methyl-2-oxo-oxazolindin-3-yl)-3H-benzoxazol-2-one] |
| 246 to 248 | 848 | Cc1sc(-c2ccccc2)nc1CN(C)[C@H]1CC[C@H](c2ccc3[nH]c(=O)oc3c2)CC1 [Example 5b, trans-6-{4-[Methyl-(5-methyl-2-phenyl-thiazol-4-ylmethyl)-amino]-cyclohexyl}-3H-benzoxazol-2-one] |
